Measured values published in US7999001B2 (priority 2007, dated 2011).
Where two headings read alike, the source gives them in different places.

How the values were obtained:
[1] = system: EBOV-GFP (recombinant Ebola Zaire virus expressing green fluorescence protein); assay: microbe, parasite or virus in culture; type: cell-based; details: for inhibition at 20 µM: Zaire ebolavirus, Vero C1008, 48 h, read-out: EBOV % Inhibition (20 μM)
[2] = system: MPXV-GFP (recombinant monkeypox virus expressing GFP, Zaire strain); assay: microbe, parasite or virus in culture; type: cell-based; details: Vero C1008, in Primates, 48 h, read-out: Monkey Pox % Inhibition (20 μM)

SMILES	inhibition at 20 µM [1]	inhibition at 20 µM [2]	also measured
CCN(CC)CCCNc1nc(C)cc(Nc2ccc3nc(C)cc(N)c3c2)n1 [NSC 23767, N^6-(2-((3-(diethylamino)propyl)amino)-6-methyl-4-pyrimidinyl)-2-methyl-4,6-quinolinediamine]	74.1%	–	–
O=C1C(SCCO)=C(SCCO)C(=O)c2ccccc21 [NSC 95397, 2,3-bis((2-hydroxyethyl)thio)naphthoquinone]	–	–	EBOV % Inhibition (20 μM) [1]: 75.3%
N=C(N)c1ccc(-c2cc3ccc(C(=N)N)cc3s2)cc1 [NSC 240890, 2-(4-carbamimidoylphenyl)benzothiophene-6-carboximidamide; 2-hydroxypropanoic acid]	54.9%	46.7%	–
N=C(N)c1ccc(-c2cc3cc(C(=N)N)ccc3s2)cc1 [NSC 240891, 2-(4-carbamimidoylphenyl)benzothiophene-5-carboximidamide]	40.3%	99.4%	–
N=C(N)c1ccc(-c2nc3ccc(C(=N)N)cc3[nH]2)cc1 [NSC 240894, 2-(4-carbamimidoylphenyl)-3H-benzoimidazole-5-carboximidamide]	–	89.7%	–
N=C(N)c1ccc(-n2cc3cc(C(=N)N)ccc3n2)cc1 [NSC 240895, 2-(4-carbamimidoylphenyl)indazole-5-carboximidamide]	32.2%	99.7%	–
N=C(N)c1ccc(Oc2ccc(-c3cc4ccc(C(=N)N)cc4[nH]3)cc2)cc1 [NSC 240898, 2-[4-(4-carbamimidoylphenoxy)phenyl]-1H-indole-6-carboximidamide]	–	98.1%	–
N=C(N)c1ccc(-c2cc(-c3ccc(C(=N)N)cc3)on2)cc1 [NSC 240900, 4-[3-(4-carbamimidoylphenyl)oxazol-5-yl]benzenecarboximidamide]	–	79.9%	–
Cc1c2ccncc2c(C)c2c1[nH]c1ccc(O)cc12 [NSC 264136, 5,11-dimethyl-6H-pyrido[4,3-b]carbazol-9-ol]	63.1%	–	–
N=C(N)c1ccc2oc(/C=C/c3cc4cc(C(=N)N)ccc4s3)cc2c1 [NSC 266472, 2-[(E)-2-(5-carbamimidoylbenzothiophen-2-yl)ethenyl]benzofuran-5-carboximidamide]	67.5%	–	–
c1cc(-c2cc3ccc(C4=NCCN4)cc3[nH]2)ccc1C1=NCCN1 [NSC 278995, 6-(4,5-dihydro-1H-imidazol-2-yl)-2-[4-(4,5-dihydro-1H-imidazol-2-yl)phenyl]-1H-indole]	–	99.3%	–
C(=C\c1cc2cc(C3=NCCN3)ccc2o1)/c1cc2cc(C3=NCCN3)ccc2o1 [NSC 278999, 2-[2-[(E)-2-[5-(4,5-dihydro-1H-imidazol-2-yl)benzofuran-2-yl]ethenyl]benzofuran-5-yl]-4,5-dihydro-1H-imidazole]	55.6%	–	–
N=C(N)c1ccc2[nH]c(/C=C/c3cc4cc(C(=N)N)ccc4o3)cc2c1 [NSC 290107, 2-[(E)-2-(5-carbamimidoylbenzofuran-2-yl)ethenyl]-1H-indole-5-carboximidamide]	33.6%	–	–
C(=C\c1cc2cc(C3=NCCN3)ccc2o1)/c1cc2cc(C3=NCCN3)ccc2[nH]1 [NSC 290108, 5-(4,5-dihydro-1H-imidazol-2-yl)-2-[(E)-2-[5-(4,5-dihydro-1H-imidazol-2-yl)benzofuran-2-yl]ethenyl]-1H-indole]	45%	45.1%	–
O=C(Nc1ccc(C2=NCCN2)cc1)c1cc2cc(C3=NCCN3)ccc2o1 [NSC 290111, 5-(4,5-dihydro-1H-imidazol-2-yl)-N-[4-(4,5-dihydro-1H-imidazol-2-yl)phenyl]benzofuran-2-carboxamide]	40%	–	–
N=C(N)c1ccc2cc(/C=C/c3cc4ccc(C(=N)N)cc4o3)oc2c1 [NSC 294199, 2-[(E)-2-(6-carbamimidoylbenzofuran-2-yl)ethenyl]benzofuran-6-carboximidamide]	68.8%	40.9%	–
O=C(Nc1ccc(C2=NCCN2)cc1)c1cc2ccc(C3=NCCN3)cc2o1 [NSC 294208, 6-(4,5-dihydro-1H-imidazol-2-yl)-N-[4-(4,5-dihydro-1H-imidazol-2-yl)phenyl]benzofuran-2-carboxamide]	38.8%	–	–
N=C(N)c1ccc(-c2[nH]c3cc(C(=N)N)ccc3c2N)cc1 [NSC 300509, 3-amino-2-(4-carbamimidoylphenyl)-1H-indole-6-carboximidamide]	–	84.9%	–
N=C(N)c1ccc2oc(/C=C/C=C/c3cc4cc(C(=N)N)ccc4o3)cc2c1 [NSC 300511, 2-[(1E,3E)-4-(5-carbamimidoylbenzofuran-2-yl)buta-1,3-dienyl]benzofuran-5-carboximidamide]	49.2%	–	–
c1cc(-c2cc3cc(C4=NCCN4)ccc3s2)ccc1C1=NCCN1 [NSC 308569, 2-[2-[4-(4,5-dihydro-1H-imidazol-2-yl)phenyl]benzothiophen-5-yl]-4,5-dihydro-1H-imidazole]	35.3%	95.8%	–
C(=C\c1cc2cc(C3=NCCN3)ccc2o1)/c1ccc(C2=NCCN2)cc1 [NSC 308570, 2-[2-[(E)-2-[4-(4,5-dihydro-1H-imidazol-2-yl)phenyl]ethenyl]benzofuran-5-yl]-4,5-dihydro-1H-imidazole]	30.7%	–	–
C(/C=C/c1cc2cc(C3=NCCN3)ccc2o1)=C\c1cc2cc(C3=NCCN3)ccc2o1 [NSC 308571, 2-[2-[(1E,3E)-4-[5-(4,5-dihydro-1H-imidazol-2-yl)benzofuran-2-yl]buta-1,3-dienyl]benzofuran-5-yl]-4,5-dihydro-1H-imidazole]	61.2%	–	–
N=C(N)c1ccc(/C=C/C=C/c2cc3cc(C(=N)N)ccc3o2)cc1 [NSC 308572, 2-[(1E,3E)-4-(4-carbamimidoylphenyl)buta-1,3-dienyl]benzofuran-5-carboximidamide]	32.8%	–	–
C(/C=C/c1cc2cc(C3=NCCN3)ccc2o1)=C\c1ccc(C2=NCCN2)cc1 [NSC 308573, 2-[2-[(1E,3E)-4-[4-(4,5-dihydro-1H-imidazol-2-yl)phenyl]buta-1,3-dienyl]benzofuran-5-yl]-4,5-dihydro-1H-imidazole]	54.2%	–	–
N=C(N)c1ccc2c(c1)=NC(=C(N)N)C=2 [NSC 330689, 2-(diaminomethylidene)indole-6-carboximidamide]	–	89.9%	–
c1cc(-c2[nH]c3cc(C4=NCCN4)ccc3c2-c2cc3ccc(C4=NCCN4)cc3[nH]2)ccc1C1=NCCN1 [NSC 341911, 6-(4,5-dihydro-1H-imidazol-2-yl)-3-[6-(4,5-dihydro-1H-imidazol-2-yl)-1H-indol-2-yl]-2-[4-(4,5-dihydro-1H-imidazol-2-yl)phenyl]-1H-indole]	33.2%	–	–
c1cc(-c2[nH]c3cc(C4=NCCN4)ccc3c2-c2cc3ccc(C4=NCCN4)cc3[nH]2)ccc1C1=NCCN1 [NSC 352341, 6-(4,5-dihydro-1H-imidazol-2-yl)-3-[6-(4,5-dihydro-1H imidazol-2-yl)-1H-indol-2-yl]-2-[4-(4,5-dihydro-1H-imidazol-2-yl)phenyl]-1H-indole]	–	–	EBOV % Inhibition (20 μM) ([1]; 20 µM): 41.2%
Nc1ccc(-c2cc3ccc(C4=NCCN4)cc3[nH]2)cc1 [NSC 369715, 4-(6-(4,5-dihydro-1H-imidazol-2-yl)-1H-indol-2-yl)phenylamine]	56.8%	–	–
